Test results published in article PMC9332756, “Exploration of Diazaspiro Cores as Piperazine Bioisosteres in the Development of σ2 Receptor Ligands” (International Journal of Molecular Sciences, 2022).

Tests used:
[1] = target: T1, σ2R (Rattus norvegicus, UniProt Q5U3Y7); assay: σ2R radioligand binding assay with [125I]RHM-4, rat liver homogenates; conditions: for σ1/σ2 Ratio: ratio of Ki σ1R to Ki σ2R; for Ki: rat liver homogenates, [125I]RHM-4, mean ± SEM, at least three experiments
T1 construct: from tissue; host or cells: rat liver homogenate
T1 sequence (Q5U3Y7 1-176): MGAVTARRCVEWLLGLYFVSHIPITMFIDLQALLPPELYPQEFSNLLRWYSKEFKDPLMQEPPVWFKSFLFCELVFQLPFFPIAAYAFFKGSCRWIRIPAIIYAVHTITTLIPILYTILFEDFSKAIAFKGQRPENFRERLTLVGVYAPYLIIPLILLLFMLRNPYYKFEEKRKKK
Procedure: (§1) Radioligand binding assays were conducted using [^125I]RHM-4 with rat liver homogenates for σ2R-binding properties and a σ1R assay using [^3H]-(+)-pentazocine with Guinea pig brain homogenates. Evaluation of the compounds in the in vitro radioligand binding studies was conducted using a two-step process. […] Compounds displaying ≥ 50% displacement of radioligand binding in σ1 and σ2 assays (Table 1) were chosen for full competition studies using 10 different concentrations of the displacer. A representative competition curve at σ1 and σ2 receptors is shown for compound 2t in Figure 2.
(§2) For screening, [^3H]-(+)-pentazocine (~50,000 cpm) or [^125I]RHM-4 (~200,000 cpm) was mixed with 100 nM of tested compounds. Guinea pig brain homogenates (100 µg) or rat liver homogenates (15 µg) were added to mixture and incubated at 37 °C for 90 min. The mixture was filtered by harvester and washed 3 times using cold washing buffer (10 mM Tris-HCl, 150 mM NaCl). Collected filter was mixed with 3 mL of microscintTM20 and counted 1 min/well using beta counter. […] After that, protein was added and incubated at 37 °C for 90 min. The bound form was filtered by Whatman CF/C filter which was soaked in 1% of polyethyleneimine (PEI) in DW and then filters were washed tree times with cold washing buffer. The non-specific binding was determined in the presence of 10 µM of haloperidol or cold RHM-4. Filter was collected and read by scintillation counting (MicroBeta2 ®, PerkinElmer, Beaconsfield, UK) or gamma counter (PerkinElmer, Beaconsfield, UK). The data were analyzed using PRISM 8 (GraphPad Inc., San Diego, CA, USA).

[2] = target: T2, σ1R (Cavia porcellus, UniProt Q60492); assay: σ1R radioligand binding assay with [3H]-(+)-pentazocine, Guinea pig brain homogenates; conditions: mean ± SEM, at least three experiments
T2 construct: from tissue; host or cells: Guinea pig brain homogenate
Procedure: as §1, §2

[3] = target: T1, σ2R; assay: σ2R radioligand binding assay with [125I]RHM-4, rat liver homogenates; conditions: three-point screening assay (10 nM, 100 nM, 1 μM)
[4] = target: σ1R; conditions: Figure 1; cited from earlier work
[5] = target: σ2R; conditions: Figure 1; cited from earlier work

T2 sequence (Q60492 whole entry): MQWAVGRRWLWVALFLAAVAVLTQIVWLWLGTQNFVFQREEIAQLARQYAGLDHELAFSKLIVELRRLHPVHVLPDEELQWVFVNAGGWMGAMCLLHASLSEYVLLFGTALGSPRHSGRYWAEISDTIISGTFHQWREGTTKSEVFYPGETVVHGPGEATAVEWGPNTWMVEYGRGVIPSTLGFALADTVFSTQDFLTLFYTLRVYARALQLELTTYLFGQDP

σ1/σ2 Ratio [1] | Ki [2] [nM] | Ki [1] [nM] | Structure (SMILES) | affinity for the σ2R (in words) [3] | Ki [4] [µM] | Ki [5] [µM]
279 | 251 ± 48.1 | – | Cn1c(=O)n(CCCCN2CCN(c3ccc(F)cc3)CC2)c2ccccc21 [Compound 1, reference compound] | – | – | –
27 | 659 ± 84.2 | 24.4 ± 3.3 | Cn1c(=O)n(CCCCN2CCC3(CC2)CCN(c2ccccc2F)CC3)c2ccccc21 [Compound 2e] | – | – | –
0.5 | 20.5 ± 3.3 | 41.8 ± 7.5 | Cn1c(=O)n(CCCCN2CC3(C2)CN(c2ccccc2F)C3)c2ccccc21 [Compound 2n] | – | – | –
1.1 | 45.9 ± 6.8 | 40 ± 3.2 | Cn1c(=O)n(CCCCN2CC3(C2)CN(c2ccc(F)cc2)C3)c2ccccc21 [Compound 2o] | – | – | –
– | – | – | Cn1c(=O)n(CCCCN2CC3CCCC(C2)N3c2ccc(F)cc2)c2ccccc21 [Compound 2p] | low affinity | – | –
– | – | – | Cn1c(=O)n(CCCCN2CC3CCC(C2)N3c2ccc(F)cc2)c2ccccc21 [Compound 2q] | low affinity | – | –
66 | 712 ± 135 | 10.7 ± 1.8 | Cn1c(=O)n(CCCCN2CC3CC2CN3c2ccc(F)cc2)c2ccccc21 (stereo not shown) [Compound 2r] | – | – | –
– | – | – | Cn1c(=O)n(CCCCN2CC3CCN(c4ccc(F)cc4)C3C2)c2ccccc21 (stereo not shown) [Compound 2s] | low affinity | – | –
67 | 255 ± 29.9 | 3.8 ± 0.9 | Cn1c(=O)n(CCCCN2CCCN(c3ccc(F)cc3)CC2)c2ccccc21 [Compound 2t] | – | – | –
15 | 279 ± 30.7 | 18.8 ± 1.6 | CCN(c1ccc(F)cc1)C1CN(CCCCn2c(=O)n(C)c3ccccc32)C1 [Compound 2u] | – | – | –
351 | 702 ± 272 | 2 ± 0.6 | Cn1c(=O)n(CCCCN2CCN(c3cccc(F)c3)CC2)c2ccccc21 [Compound 7, reference compound] | – | – | –
– | – | – | COc1cccc2c1CCCC2CCCN1CCN(C2CCCCC2)CC1 (stereo not shown) [PB28, 1-cyclohexyl-4-[3-(5-methoxy-1,2,3,4-tetrahydronaphthalen-1-yl)propyl]piperazine] | – | 0.00038 ± 0.0001 | 0.00068 ± 0.0002
– | – | – | COc1cc2c(cc1OC)CN(CCCCNC(=O)c1cc(I)cc(OC)c1OC)CC2 [RHM-4] | – | 0.554 | 0.001
– | – | – | COc1ccc(C)cc1NC(=O)OC1CC2CCCC(C1)N2CCCCCCN (stereo not shown) [SV 119] | – | 1.42 ± 0.439 | 0.00519 ± 0.0008
– | – | – | Fc1ccc(-n2cc(CCCCN3CCC4(CC3)OCc3ccccc34)c3ccccc32)cc1 [Siramesine] | – | 0.017 | 0.00012
